PubChem BioAssay (NCI)
“And” between values parts separate entries of the source, which are not always exact repeats. Identical values can stand only once.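 Tested at 5 concentrations; 48 h exposure; 96-well plates; endpoints linearly interpolated, else capped at highest concentration. Abbreviation: GI50, concentration required for 50% inhibition of growth. Definition used: TGI = concentration required for complete inhibition of growth.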

Columns and labels:
Experiment in all cases: NCI-60 cell line screen, 48 h; in the data active = GI50 below about 0.43 µM; inactive = the rest
[1] = system: SK-MEL-2 melanoma
[2] = system: SW-620 colon
[3] = system: HL-60(TB) leukemia
[4] = system: 786-0 renal
[5] = system: NCI-H460 lung
[6] = system: SK-MEL-28 melanoma
[7] = system: MOLT-4 leukemia
[8] = system: LOX IMVI melanoma
[9] = system: COLO 205 colon
[10] = system: UO-31 renal
[11] = system: MCF7 breast
[12] = system: SNB-19 CNS
[13] = system: NCI/ADR-RES ovarian
[14] = system: K-562 leukemia
[15] = system: U251 CNS
[16] = system: M14 melanoma
[17] = system: SK-MEL-5 melanoma
[18] = system: SF-295 CNS
[19] = system: A549 NSCLC
[20] = system: HOP-92 NSCLC
[21] = system: SNB-75 CNS
[22] = system: NCI-H522 lung
[23] = system: NCI-H226 lung
[24] = system: HCT-15 colon
[25] = system: ACHN renal
[26] = system: EKVX NSCLC
[27] = system: HCT-116 colon
[28] = system: TK-10 renal
[29] = system: SK-OV-3 ovarian
[30] = system: KM12 colon
[31] = system: CAKI-1 renal
[32] = system: OVCAR-5 ovarian
[33] = system: T-47D breast
[34] = system: SF-539 CNS
[35] = system: CCRF-CEM leukemia
[36] = system: HCC-2998 colon
[37] = system: RXF 393 renal
[38] = system: HOP-62 NSCLC
[39] = system: MDA-N
[40] = system: PC-3 prostate
[41] = system: SN12C renal
[42] = system: HS 578T breast
[43] = system: HT29 colon
[44] = system: SF-268 CNS
[45] = system: A498 renal
[46] = system: BT-549 breast
[47] = system: RPMI-8226 leukemia
[48] = system: NCI-H23 lung
[49] = system: MALME-3M melanoma
[50] = system: MDA-MB-231 breast
[51] = system: UACC-257 melanoma
[52] = system: UACC-62 melanoma
[53] = system: IGROV1 ovarian
[54] = system: DU-145 prostate
[55] = system: OVCAR-3 ovarian
[56] = system: SR leukemia
[57] = system: OVCAR-4 ovarian
[58] = system: OVCAR-8 ovarian
[59] = system: MDA-MB-435
[60] = system: KM20L2 colon

COC(=O)CN1Cc2cc(C)cc(c2O)CN(CC(=O)OC)Cc2cc(C)cc(c2O)CN(CC(=O)OC)Cc2cc(C)cc(c2O)CN(CC(=O)OC)Cc2cc(C)cc(c2O)C1
16 µM: TGI [3]
47.8 µM and > 100 µM: TGI [38]
50 µM: TGI [31] | TGI [43] | TGI [49] | TGI [53]
32.1 µM and > 100 µM: TGI [55]
50 µM and 31.3 µM: TGI [1]
50 µM and > 100 µM: TGI [2] | TGI [4] | TGI [5] | TGI [6] | TGI [7] | TGI [8] | TGI [9] | TGI [10] | TGI [11] | TGI [12] | TGI [14] | TGI [15] | TGI [17] | TGI [18] | TGI [19] | TGI [21] | TGI [24] | TGI [25] | TGI [26] | TGI [27] | TGI [28] | TGI [30] | TGI [32] | TGI [33] | TGI [34] | TGI [36] | TGI [40] | TGI [41] | TGI [42] | TGI [44] | TGI [45] | TGI [47] | TGI [48] | TGI [50] | TGI [51] | TGI [54] | TGI [56] | TGI [57] | TGI [58] | TGI [59]
> 50 µM and 97.5 µM: TGI [20]
18.7 µM and 51.5 µM: TGI [16]
> 100 µM: TGI [22] | TGI [39] | TGI [52]
28.6 µM and > 100 µM: TGI [37]
46.2 µM and > 100 µM: TGI [29]
50 µM and 64 µM: TGI [13]
50 µM and 77.7 µM: TGI [46]
47.2 µM and > 100 µM: TGI [23]
50 µM and 33.2 µM: TGI [35]
inactive: GI50 [1] 2.36 µM | GI50 [2] 18 µM | GI50 [5] 21.7 µM | GI50 [6] 27.9 µM | GI50 [7] 39.8 µM | GI50 [8] 8.68 µM | GI50 [9] 28.6 µM | GI50 [10] 33.8 µM | GI50 [11] 39.9 µM | GI50 [12] 18.3 µM | GI50 [13] 21.9 µM | GI50 [14] 61.2 µM | GI50 [15] 30.9 µM | GI50 [16] 17.7 µM | GI50 [17] 37.7 µM | GI50 [18] 34.1 µM | GI50 [19] 46.4 µM | GI50 [20] 21.5 µM | GI50 [21] 42.5 µM | GI50 [23] 11.1 µM | GI50 [24] 25 µM | GI50 [25] 34.6 µM | GI50 [26] 35.3 µM | GI50 [27] 27.7 µM | GI50 [28] > 100 µM | GI50 [29] 35.3 µM | GI50 [30] 50.2 µM | GI50 [32] 5.26 µM | GI50 [33] 36.4 µM | GI50 [34] 37.3 µM | GI50 [35] 5.37 µM | GI50 [36] 25.2 µM | GI50 [37] 36.1 µM | GI50 [38] 23.3 µM | GI50 [39] 84.1 µM | GI50 [41] 51.6 µM | GI50 [42] > 100 µM | GI50 [44] > 100 µM | GI50 [45] > 100 µM | GI50 [46] 15.3 µM | GI50 [47] 87.6 µM | GI50 [50] 34.7 µM | GI50 [51] 50.4 µM | GI50 [54] 33.3 µM | GI50 [55] 5.7 µM | GI50 [56] 18 µM | GI50 [57] 33.1 µM | GI50 [58] 18.7 µM | GI50 [59] 45.9 µM

CCCCCC(=O)OC[n+]1ccc2c(C)c3[nH]c4ccc(OC)cc4c3c(C)c2c1
3.31 µM: TGI [10] | TGI [52]
3.71 µM: TGI [53]
2.17 µM: TGI [45]
> 63.6 µM: TGI [49]
4.78 µM: TGI [25]
3.19 µM: TGI [54]
1.96 µM: TGI [11]
1.51 µM: TGI [4]
> 23 µM: TGI [31]
13.7 µM: TGI [19]
2.28 µM: TGI [38]
1.17 µM: TGI [34]
1.72 µM: TGI [18]
3.03 µM: TGI [29]
1.04 µM: TGI [5]
> 100 µM: TGI [1] | TGI [7] | TGI [17] | TGI [22] | TGI [60] | TGI [44] | TGI [55] | TGI [56]
2.24 µM: TGI [32]
1.83 µM: TGI [50]
9.74 µM: TGI [28]
31 µM: TGI [23]
13.1 µM: TGI [33]

OC1C2CCCCN2C[C@@H](O)[C@H]1O (stereo partly specified)
> 100 µM: TGI [1] | TGI [2] | TGI [3] | TGI [4] | TGI [5] | TGI [6] | TGI [7] | TGI [8] | TGI [9] | TGI [10] | TGI [11] | TGI [12] | TGI [13] | TGI [14] | TGI [15] | TGI [16] | TGI [17] | TGI [18] | TGI [19] | TGI [20] | TGI [21] | TGI [22] | TGI [23] | TGI [24] | TGI [25] | TGI [26] | TGI [27] | TGI [28] | TGI [29] | TGI [30] | TGI [31] | TGI [32] | TGI [33] | TGI [34] | TGI [35] | TGI [36] | TGI [37] | TGI [38] | TGI [39] | TGI [40] | TGI [41] | TGI [42] | TGI [43] | TGI [44] | TGI [45] | TGI [46] | TGI [47] | TGI [48] | TGI [49] | TGI [50] | TGI [51] | TGI [52] | TGI [53] | TGI [54] | TGI [55] | TGI [56] | TGI [57] | TGI [58] | TGI [59]
